Results taken from US20120198764A1, “METHOD FOR REDUCING PHYTOTOXICITY” (Ishihara Sangyo Kaisha, Ltd., priority 2009, published 2012).
Like-named read-outs stand apart in the source and are kept apart here.

Experiments:
Details in all cases: in vivo
[1] = test system: bentgrass (breed: pencross); test: Test Example 7: pot test, copper phthalocyanine or Prussian Blue applied 1 day before flazasulfuron
Description: (§1) On 13th day after the treatment with flazasulfuron, the state of growth of bentgrass was visually observed and evaluated in accordance with growth inhibition rate (%)=0 (equivalent to the non-treated area) to 100 (complete kill), and thereby the results shown in Table 1 were obtained. Further, the test was carried out in duplicate.
(§2) 1/1,000,000 ha pots were prepared, as the present invention area, comparative area and non-treated area, soil was put into them, and bentgrass (breed: pencross) in sod state was planted thereon. After the bentgrass root-took on soil, a spray liquid was prepared by diluting copper phthalocyanine or Prussian Blue with water to 1,000 times or 500 times, and the bentgrass in the present invention area was subjected to foliar treatment with the spray liquid in an amount of about 1,000 L/ha by a small spray gun. After 1 day, a spray liquid was prepared by diluting a predetermined amount (corresponding to flazasulfuron: 5 g a.i./ha) of SHIBAGEN DF (tradename, the same as in Test Example 1) with water containing 0.02 wt % of Kusa-rino (tradename, the same as in Test Example 1), and the bentgrass in the present invention area and comparative area were subjected to foliar treatment with the spray liquid in an amount of about 2,000 L/ha by a small spray gun.
On 8th day after the treatment with flazasulfuron, the state of growth of bentgrass was evaluated in the same manner as in Test Example 1, and thereby the results shown in Table7 were obtained. Further, the test was carried out in duplicate.

[2] = test system: bentgrass (breed: pencross); test: Test Example 1: pot test, TurfGreen BG applied 7 days before flazasulfuron
Description: 1/300,000 ha pots were prepared, as the present invention area, comparative area and non-treated area, soil was put into them, and bentgrass (breed: pencross) in sod state (state of mat) was planted thereon. With respect to the bentgrass in the present invention area, after the bentgrass root-took on soil, a spray liquid was prepared by diluting a colorant for turfgrass (tradename: TurfGreen BG (containing chlorinated copper phthalocyanine), manufactured by Nisso Green Co., Ltd.) with water to 50 times, and the bentgrass was subjected to foliar treatment with the spray liquid in an amount of about 2,000 L/ha by a small spray gun. […]
On 13th day after the treatment with flazasulfuron, the state of growth of bentgrass was visually observed and evaluated in accordance with growth inhibition rate (%)=0 (equivalent to the non-treated area) to 100 (complete kill), and thereby the results shown in Table 1 were obtained. […]

[3] = test system: bentgrass (breed: pencross); test: Test Example 2: pot test, TurfGreen BG applied 1 day after flazasulfuron
Description: as §1
as §2, with “With respect” for “After the bentgrass root-took on soil, a spray liquid was prepared by diluting copper phthalocyanine or Prussian Blue with water”, “to” for “to 1,000 times or 500 times, and”, “and comparative area, after” for “was subjected to foliar treatment with”, “bentgrass root-took on soil,” for “spray liquid in an amount of about 1,000 L/ha by a small spray gun. After 1 day,”, “gun. […]” for “gun.”
On 7th day after the treatment with TurfGreen BG, the state of growth of bentgrass was evaluated in the same manner as in Test Example 1, and thereby the results shown in Table 2 were obtained. […]

[4] = test system: bentgrass (breed: pencross); test: Test Example 3: ground plot test, TurfGreen BG applied 1 or 3 days before flazasulfuron
Description: as §1
(§3) Among bentgrass (breed: pencross) planted in sod state on ground in 0.5 m^2 (5.0×10^−5 ha, 1 m×0.5 m) in the present invention area A, the present invention area B, comparative area and non-treated area, the bentgrass in the present invention area A, the present invention area B and comparative area were subjected to foliar treatment with a spray liquid prepared by diluting a predetermined amount (corresponding to flazasulfuron: 6.25 g a.i./ha) of SHIBAGEN DF (tradename, the same as in Test Example 1) with water containing 0.02 wt % of Kusa-rino (tradename, the same as in Test Example 1) in an amount of about 2,000 L/ha by a hand portable pump sprayer. […]
On 14th day after the treatment with flazasulfuron, the state of growth of the bentgrass was evaluated in the same manner as in Test Example 1, and thereby the results shown in Table 3 were obtained. […]

[5] = test system: bentgrass (breed: pencross); test: Test Example 4: ground plot test, TurfGreen BG applied 7 days after flazasulfuron
Description: as §1
as §3, with “planted on ground” for “planted”, “state” for “state on ground”, “m) of” for “m) in”, “invention area,” for “invention area A, the present invention area B,”, “the bentgrasses” for “the bentgrass”, “area” for “area A, the present invention area B”
Prior to the treatment with TurfGreen BG or on 7th day after the treatment with TurfGreen BG, the state of growth of bentgrass was evaluated in the same manner as in Test Example 1, and thereby the results shown in Table 4 were obtained. […]

[6] = test system: bentgrass (breed: pencross); test: Test Example 5: pot test, colorants applied 1 day before flazasulfuron
Description: as §1
1/1,000,000 ha pots were prepared, as the present invention area, comparative area and non-treated area, soil was put into them, and bentgrass (breed: pencross) in sod state was planted thereon. After the bentgrass root-took on soil, a spray liquid was prepared by diluting a colorant for turfgrass (tradename: Green Way (pigment containing metal ions), manufactured by Otsuka Chemical Co., Ltd.), (tradename: Green Way Sayaka (pigment containing metal ions), manufactured by Otsuka Chemical Co., Ltd.) or (tradename: Clear Green L (copper phthalocyanine), manufactured by Ohkawaya Co., Ltd.) with water to 50 times, and the bentgrass in the present invention area was subjected to foliar treatment with the spray liquid in an amount of about 2,000 L/ha by a small spray gun. […]
On 7th day after the treatment with flazasulfuron, the state of growth of bentgrass was evaluated in the same manner as in Test Example 1, and thereby the results shown in Table 5 were obtained. […]

[7] = test system: bentgrass (breed: pencross); test: Test Example 6: ground plot test, FULLGREEN S applied 1 day before or after flazasulfuron
Description: as §1
as §3, with “planted on ground” for “planted”, “state” for “state on ground”, “m) of” for “m) in”, “a small spray gun.” for “a hand portable pump sprayer.”
On 7th day after the treatment with flazasulfuron, the state of growth of bentgrass was evaluated in the same manner as in Test Example 1, and thereby the results shown in Table 6 were obtained. […]

[8] = test system: bentgrass (breed: pencross); test: Test Example 8: pot test, Prussian Blue applied 5 days after flazasulfuron
Description: as §1
as §2, with “soil,” for “soil, a spray liquid was prepared by diluting copper phthalocyanine or Prussian Blue with water to 1,000 times or 500 times, and the bentgrass in the present invention area was subjected to foliar treatment with the spray liquid in an amount of about 1,000 L/ha by a small spray gun. After 1 day,”, “gun. […]” for “gun.”
On 7th day after the treatment with Prussian Blue, the state of growth of bentgrass was evaluated in the same manner as in Test Example 1, and thereby the results shown in Table 8 were obtained. […]

[9] = test system: bentgrass (breed: pencross)
Description: as §1
as §2, with “Pigment Green 7” for “copper phthalocyanine or Prussian Blue”, “125” for “1,000 times or 500”, “10” for “5”
On 7th day after the treatment with flazasulfuron, the state of growth of bentgrass was evaluated in the same manner as in Test Example 1, and thereby the results shown in Table 9 were obtained. Further, the test was carried out in triplicate.

[Cu+2].c1ccc2c(c1)-c1nc-2nc2[n-]c(nc3nc(nc4[n-]c(n1)c1ccccc41)-c1ccccc1-3)c1ccccc21 [copper phthalocyanine]
State of growth of bentgrass, Growth inhibition rate (%) [1]: 40% | phytotoxicity due to flazasulfuron, compared with comparative area [1]: reduced

COc1cc(OC)nc(NC(=O)NS(=O)(=O)c2ncccc2C(F)(F)F)n1 [flazasulfuron]
State of growth of bentgrass, Growth inhibition rate (%) [2]: 50% | State of growth of bentgrass, Growth inhibition rate (%) [3]: 48% | State of growth of bentgrass, Growth inhibition rate (%) [4]: 40% | State of growth of bentgrass, Growth inhibition rate (%) [5]: 30% | State of growth of bentgrass, Growth inhibition rate (%) [6]: 53% | State of growth of bentgrass, Growth inhibition rate (%) [7]: 31% | State of growth of bentgrass, Growth inhibition rate (%) [1]: 55% | State of growth of bentgrass, Growth inhibition rate (%) [8]: 54% | State of growth of bentgrass, Growth inhibition rate (%) [9]: 56%

Pigment Green 7
State of growth of bentgrass, Growth inhibition rate (%) [9]: 50% | phytotoxicity due to flazasulfuron, compared with comparative area [9]: reduced
